{"source": "patent US9241491B2", "about": "“Aerosol” (SABAN VENTURES PTY LIMITED, priority 2005, dated 2016)", "key": {"[1]": {"test": "Maximum peroxide concentration (peroxide density) in gas phase", "type": "physicochemical", "conditions": "for maximum achievable concentration for vapour systems: no evacuation; for Max. peroxide vapour concentration: initial 35% H2O2 solution"}, "Spore strips": {"tested_on": "Spore strips", "conditions": "atmospheric pressure, below 80° C.; could not be achieved in less; cited from earlier work"}}}
{"smiles": "OO", "note": "[hydrogen peroxide vapour, hydrogen peroxide]", "values": [{"measurement": "maximum achievable concentration for vapour systems", "setting": "[1]; 0% humidity", "value": 2.0, "unit": "mg/L"}, {"measurement": "maximum achievable concentration for vapour systems", "setting": "[1]; 25° C., 40% RH", "value": 0.9, "unit": "mg/L"}, {"measurement": "Max. peroxide vapour concentration", "setting": "[1]; 20 ° C., 10% RH", "value": 0.97, "unit": "mg/L"}, {"measurement": "Max. peroxide vapour concentration", "setting": "[1]; 20 ° C., 20% RH", "value": 0.85, "unit": "mg/L"}, {"measurement": "Max. peroxide vapour concentration", "setting": "[1]; 20 ° C., 40% RH", "value": 0.62, "unit": "mg/L"}, {"measurement": "Max. peroxide vapour concentration", "setting": "[1]; 20 ° C., 80% RH", "value": 0.14, "unit": "mg/L"}, {"measurement": "Max. peroxide vapour concentration", "setting": "[1]; 40 ° C., 10% RH", "value": 4.13, "unit": "mg/L"}, {"measurement": "Max. peroxide vapour concentration", "setting": "[1]; 40 ° C., 20% RH", "value": 2.59, "unit": "mg/L"}, {"measurement": "Max. peroxide vapour concentration", "setting": "[1]; 40 ° C., 40% RH", "value": 2.66, "unit": "mg/L"}, {"measurement": "Max. peroxide vapour concentration", "setting": "[1]; 40 ° C., 80% RH", "value": 0.63, "unit": "mg/L"}, {"measurement": "Max. peroxide vapour concentration", "setting": "[1]; 60 ° C., 10% RH", "value": 14.4, "unit": "mg/L"}, {"measurement": "Max. peroxide vapour concentration", "setting": "[1]; 60 ° C., 20% RH", "value": 12.60, "unit": "mg/L"}, {"measurement": "Max. peroxide vapour concentration", "setting": "[1]; 60 ° C., 40% RH", "value": 9.1, "unit": "mg/L"}, {"measurement": "Max. peroxide vapour concentration", "setting": "[1]; 60 ° C., 80% RH", "value": 2.31, "unit": "mg/L"}, {"measurement": "time to sterilization", "setting": "Spore strips", "value": "≥ 6", "unit": "h"}]}
